Molecules are shown by their SMILES. Where two headings read alike, the source gives them in different places.

These results are taken from US6844358B2, “Phenyl oxo-acetic acids useful in the treatment of insulin resistance and hyperglycemia” (Wyeth, priority 1998, dated 2005).

The target of data set [1] is T1, recombinant rat protein tyrosine phosphatase, PTP1B (rPTP1B) (Rattus norvegicus, UniProt P20417).
T1 sequence (P20417 1-432): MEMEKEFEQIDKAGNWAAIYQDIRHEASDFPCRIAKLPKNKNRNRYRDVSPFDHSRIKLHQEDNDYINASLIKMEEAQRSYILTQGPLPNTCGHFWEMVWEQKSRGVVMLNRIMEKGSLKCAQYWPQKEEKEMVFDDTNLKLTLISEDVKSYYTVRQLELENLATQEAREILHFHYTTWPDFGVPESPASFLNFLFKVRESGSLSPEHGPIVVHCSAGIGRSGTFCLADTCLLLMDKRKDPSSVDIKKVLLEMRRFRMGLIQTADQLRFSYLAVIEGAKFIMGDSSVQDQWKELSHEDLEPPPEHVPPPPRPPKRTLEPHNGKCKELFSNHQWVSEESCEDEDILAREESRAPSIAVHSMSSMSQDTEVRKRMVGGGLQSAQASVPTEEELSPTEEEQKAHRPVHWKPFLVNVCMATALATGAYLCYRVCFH
It counts as biochemical. To be noted: for % change from control at 10 μM: 10 μM compound.

In data set [2] the target is rat hepatic microsomal PTPases. The conditions noted are these: rat hepatic microsomal PTPase; for IC50: dodecaphosphopeptide substrate 50 uM; for % Change from Control at 50 μM: 50 μM compound.
The subject of data set [3] is diabetic (ob/ob) mice. Kind of data set: Blood glucose lowering activity in diabetic (ob/ob) mice. Type of data set: in vivo. To be noted: Mus musculus, po. The procedure:
The procedures used and results obtained are briefly described below. […]
In each test procedure, mice [Male or female ob/ob (C57 B1/6J) and their lean litermates (ob/+ or +/+, Jackson Laboratories) ages 2 to 5 months (10 to 65 g)] of a similar age were randomized according to body weight into 4 groups of 10 mice. The mice were housed 5 per cage and are maintained on normal rodent chow with water ad libitum. Mice received test compound daily by gavage (suspended in 0.5 ml of 0.5% methyl cellulose); dissolved in the drinking water; or admixed in the diet. The dose of compounds given ranges from 2.5 to 200 mg/kg body weight/day. The dose is calculated based on the fed weekly body weight and is expressed as active moiety. […] Control mice received vehicle only.
On the morning of Day 4, 7 or 14 two drops of blood (approximetly 50 ul) were collected into sodium fluoride containing tubes either from the tail vein or after decapitation. For those studies in which the compound was administered daily by gavage the blood samples were collected two hours after compound administration. […]
Analysis of variance followed by Dunett's Comparison Test (one-tailed) are used to estimate the significant difference between the plasma glucose values from the control group and the individual compound treated groups (CMS SAS Release 5.18).

Where [4] appears, read: 96 h, plasma glucose on Day 4, 7 or 14, suffix a = no significant activity at this dose, read-out: % Change Glucose from Vehicle.
[5] abbreviates: suffix a = no significant activity at this dose, read-out: % Change Insulin from Vehicle.

For the compound `CCc1oc2ccc(Cl)cc2c1C(=O)c1cc(Br)c(OCC(=O)O)c(Br)c1` [Example 20, [2,6-dibromo-4-(5-chloro-2-ethyl-1-benzofuran-3-carbonyl)-phenoxy]-acetic acid], the melting point (usually the temperature, or range, at which the solid turns liquid) lay within 175 to 177 °C. For the same compound, the “% change from control at 10 μM” value in data set [1] (rPTP1B) is reported as −34 (rPTP1B) %. The concentration for half-maximal inhibition (IC50) – broadly, the concentration needed to halve the response being measured – in data set [2] came to 40.4 µM.

The compound `O=C(O)COc1c(Br)cc(C(=O)c2c(CCc3ccccc3)oc3ccccc23)cc1Br` [Example 19, [2,6-Dibromo-4-(2-phenethyl-benzofuran-3-carbonyl)-phenoxy]-acetic acid] yielded a melting point of 163 to 164 °C. In addition, in data set [1] (rPTP1B), the “% change from control at 10 μM” value is −53 (rPTP1B) %. The half-inhibitory concentration (IC50) in data set [2] was 26.3 µM.

Consider `O=C(c1cc(Br)c(O)c(Br)c1)c1c(Cc2ccccc2)oc2ccccc12` [Example 14, (2-Benzyl-benzofuran-3-yl)-(3,5-dibromo-4-hydroxy-phenyl)-methanone], for which the melting point lay within 156 to 158 °C. Moreover, the “% change from control at 10 μM” value in data set [1] (rPTP1B) is −81 (rPTP1B) %. The IC50 in data set [2] was found to be 27.8 µM. The change in vivo at 100 mg/kg in data set [3] (setting [4]) is -36.8%. Also, in data set [3] (setting [5]), the change in vivo at 100 mg/kg is -40.7%.

On to `CCc1oc2ccccc2c1C(=O)c1cc(Br)c(OCC(=O)O)c(Br)c1` [Example 2, [2,6-dibromo-4-(2-ethyl-benzofuran-3-carbonyl)-phenoxy]-acetic acid], for which the melting point was in the range of 135 to 137 °C. Besides, in data set [1] (rPTP1B), the “% change from control at 10 μM” value is on record as −30 (rPTP1B) %. In addition, in data set [2], the “% Change from Control at 50 μM” value is listed as −25%. For the same compound, the change in vivo at 100 mg/kg in data set [3] (setting [4]) is -48.1%. In addition, the change in vivo at 100 mg/kg in data set [3] (setting [5]) is -78.2%.

As for `O=C(c1cc(Br)c(O)c(Br)c1)c1c(CCc2ccccc2)oc2ccccc12` [Example 15, (3,5-Dibromo-4-hydroxy-phenyl)-(2-phenethyl-benzofuran-3-yl)-methanone], the melting point lay in the range of 153 to 154 °C. The IC50 in data set [1] (rPTP1B, read-out: IC50) worked out at 2.6 µM. Besides, it took 20.5 µM to reach half-maximal inhibition in data set [2] (IC50). Besides, the change in vivo at 100 mg/kg in data set [3] (setting [4]) was -32.8%. Moreover, the change in vivo at 100 mg/kg in data set [3] (setting [5]) is -10.3%.

With `O=C(O)COc1c(Br)cc(C(=O)c2c(Cc3ccccc3)oc3ccccc23)cc1Br` [Example 10, [4-(2-Benzyl-benzofuran-3-carbonyl)-2,6-dibromo-phenoxy]-acetic acid], the melting point lay within 165 to 167 °C. In addition, in data set [1] (rPTP1B), the “% change from control at 10 μM” value was −75 (rPTP1B) %. In data set [2], this compound had an IC50 of 36 µM. Also, the change in vivo at 100 mg/kg in data set [3] (setting [4]) is -17.7%. Also, in data set [3] (setting [5]), the change in vivo at 100 mg/kg is -70%.

For the compound `CCc1oc2ccc(Cl)cc2c1C(=O)c1cc(Br)c(O)c(Br)c1` [Example 13, (5-Chloro-2-ethyl-benzofuran-3-yl)-(3,5-dibromo-4-hydroxy-phenyl)-methanone], the “% change from control at 10 μM” value in data set [1] (rPTP1B) is on record as −64 (rPTP1B) %. In data set [2], this compound returned a concentration for half-maximal inhibition (IC50) of 27.1 µM. Also, the change in vivo at 100 mg/kg is -12% in data set [3] (setting [4]) and -74.5% in data set [3] (setting [5]).

`O=C(c1cc(I)c(O)c(I)c1)c1c(Cc2ccccc2)oc2ccccc12` [Example 9, (2-Benzyl-benzofuran-3-yl)-(4-hydroxy-3,5-diiodo-phenyl)-methanone] displayed a melting point of 153 to 154 °C. Also, the “% change from control at 10 μM” value in data set [1] (rPTP1B) is given as −99 (rPTP1B) %. In data set [2], this compound had a concentration for half-maximal inhibition (IC50) of 22.7 µM. The change in vivo at 100 mg/kg in data set [3] (setting [4]) is -37.1%. For the same compound, the change in vivo at 100 mg/kg in data set [3] (setting [5]) is -73.7%.

With `O=C(O)COc1c(Br)cc(C(=O)c2c(Cc3ccccc3)sc3ccccc23)cc1Br` [Example 12, [4-(2-Benzyl-benzo[b]thiophen-3-carbonyl)-2,6-dibromo-phenoxy]-acetic acid], the melting point fell in the range of 162 to 163 °C. Besides, the “% change from control at 10 μM” value in data set [1] (rPTP1B) is given as −88 (rPTP1B) %. In addition, the IC50 in data set [2] was found to be 27.8 µM. In data set [3] (setting [4]), the change in vivo at 100 mg/kg is -30.7%. Further, in data set [3] (setting [5]), the change in vivo at 100 mg/kg was -60.7%.

With `CCCCc1oc2ccccc2c1C(=O)c1cc(Br)c(O)c(Br)c1` [Example 6, (2-Butyl-benzofuran-3-yl)-(3,5-dibromo-4-dihydroxy-phenyl)-methanone], the “% change from control at 10 μM” value in data set [1] (rPTP1B) is on record as −90 (rPTP1B) %. In data set [2], this compound displayed an IC50 of 24.2 µM. Moreover, the values for the change in vivo at 100 mg/kg in data set [3] (setting [4]) and in data set [3] (setting [5]) were -40.6% and -70.4%, respectively.

With `CC1(COc2ccc(CC3SC(=O)NC3=O)cc2)CCCCC1` (centres unmarked) [Ciglitazone, 5-(4-(1-methylcyclohexylmethoxy)benzyl)-2,4-dione, reference compound], the change in vivo at 100 mg/kg was -43% in data set [3] (setting [4]) and -39% in data set [3] (setting [5]).

As for `O=C(c1cc(Br)c(OCP(=O)(O)O)c(Br)c1)c1c(Cc2ccccc2)sc2ccccc12` [Example 21, [4-(2-benzyl-benzo[b]thiophen-3-carbonyl)-2,6-dibromo-phenoxymethyl]-phosphonic acid], the melting point is 210 to 212 °C. In data set [1] (rPTP1B), the “% change from control at 10 μM” value is −35 (rPTP1B) %. In data set [2], this compound gave an IC50 of 34.5 µM.

On to `CCc1oc2ccccc2c1C(=O)c1cc(I)c(O)c(I)c1` [Example 18, (2-ethyl-benzofuran-3-yl)-(4-hydroxy-3,5-diiodo-phenyl)-methanone], for which, in data set [1] (rPTP1B), the “% change from control at 10 μM” value is given as −60 (rPTP1B) %. Half-maximal inhibition in data set [2] (IC50) was put at 30.7 µM. Also, the change in vivo at 100 mg/kg in data set [3] (setting [4]) was -39.6%; in data set [3] (setting [5]), -83.6%.

In the case of `CCc1oc2ccccc2c1C(=O)c1c(Br)cc(Br)c(O)c1Br` [Example 8, (2-Ethyl-benzofuran-3-yl)-(2,4,6-tribromo-3-hydroxy-phenyl)-methanone], the melting point fell in the range of 153 to 154 °C. Further, the “% change from control at 10 μM” value in data set [1] (rPTP1B) was −61 (rPTP1B) %. For the same compound, the IC50 in data set [2] turned out to be 17.5 µM. The change in vivo at 100 mg/kg in data set [3] (setting [4]) was -3.3%. Further, in data set [3] (setting [5]), the change in vivo at 100 mg/kg was -31.2%.

`CCc1oc2ccccc2c1C(=O)c1cc(Br)c(O)c(Br)c1O` [Example 4, (3,5-Dibromo-2,4-dihydroxy-phenyl)-(2-ethyl-benzofuran-3-yl)-methanone] returned a melting point of 150 to 151 °C. Moreover, the “% change from control at 10 μM” value in data set [1] (rPTP1B) was −64 (rPTP1B) %. The compound also registered an IC50 in data set [2] of 34.3 µM. Besides, the change in vivo at 100 mg/kg in data set [3] (setting [4]) was -19.8%. Moreover, the change in vivo at 100 mg/kg in data set [3] (setting [5]) is -61.8%.

Regarding `CCCCc1oc2ccccc2c1C(=O)c1cc(Br)c(OCC(=O)O)c(Br)c1` [Example 5, [2,6-Dibromo-4-(2-butyl-benzofuran-3-carbonyl)-phenoxy]-acetic acid], the melting point was in the range of 92 to 94 °C. Further, in data set [1] (rPTP1B), the “% change from control at 10 μM” value was −78 (rPTP1B) %. In addition, the half-maximal inhibitory concentration (IC50) in data set [2] is 31.2 µM. Besides, the change in vivo at 100 mg/kg in data set [3] (setting [4]) was -20.1%. In data set [3] (setting [5]), the change in vivo at 100 mg/kg is -54.8%.

Compound `O=C(O)COc1c(I)cc(C(=O)c2c(Cc3ccccc3)oc3ccccc23)cc1I` [Example 17, [4-(2-Benzyl-benzofuran-3-carbonyl)-2,6-diiodo-phenoxy]-acetic acid] returned a melting point of 144 to 146 °C. In addition, the “% change from control at 10 μM” value in data set [1] (rPTP1B) was −97 (rPTP1B) %. In data set [2], 28.4 µM corresponded to half-maximal inhibition (IC50).

As to `CCc1oc2ccccc2c1C(=O)c1cc(Br)c(O)c(Br)c1` [Example 1, (2-Ethyl-benzofuran-3-yl)-(3,5-dibromo-4-hydroxy-phenyl)-methanone], the IC50 in data set [1] amounted to 25.8 µM; in data set [2], 70.1 µM. Also, the change in vivo at 100 mg/kg in data set [3] (setting [4]) was -44.6%; in data set [3] (setting [5]) it was -89.5%.

As for `CCc1oc2ccccc2c1Cc1cc(Br)c(O)c(Br)c1` [Example 3, 2,6-Dibromo-4-(2-ethyl-benzofuran-3-yl-methyl)-phenol], the melting point lay within 87 to 88 °C. In addition, in data set [1] (rPTP1B), the “% change from control at 10 μM” value is −74 (rPTP1B) %. Moreover, the “% Change from Control at 50 μM” value in data set [2] is recorded as −34%. Besides, in data set [3] (setting [4]), the change in vivo at 100 mg/kg was -6.2%. The change in vivo at 100 mg/kg in data set [3] (setting [5]) is -56.6%.
